Source: US6642237B1, “Gamma-hydroxy-2-(fluoroalkylaminocarbonyl)-1-piperazinepentanamides and uses thereof” (Merck & Co., Inc., priority 1999, dated 2003)

Columns and labels:
[1] = system: HIV-1 viral constructs Q60, K-60, and V-18 in MT-4 T-lymphoid cells; type: cell-based; settings: concentration reducing spread of infection by at least 95%; MT-4 cells, 4 days postinfection
Protocol: Inhibition of the spread of HIV in cell culture was measured according to Nunberg et al., J. Virol. […] In this assay, MT-4 T-lymphoid cells were infected with HIV-1 (wild-type, unless otherwise indicated) by using a predetermined inoculum, and cultures were incubated for 24 h. At this time, ≦1% of the cells were positive by indirect immunofluorescence. Cells were then extensively washed and distributed into 96-well culture dishes. Serial twofold dilutions of inhibitor were added to the wells, and cultures were continued for 3 additional days. At 4 days postinfection, 100% of the cells in control cultures were infected. HIV-1 p24 accumulation was directly correlated with virus spread. The cell culture inhibitory concentration was defined as the inhibitor concentration in nanomoles/liter which reduced the spread of infection by at least 95%, or CIC95.

[2] = system: HIV; settings: HIV-infected patients; in combination with nucleoside reverse transcriptase inhibitors; cited from earlier work

For `CC(C)(C)NC(=O)[C@@H]1CN(Cc2cccnc2)CCN1C[C@@H](O)C[C@@H](Cc1ccccc1)C(=O)N[C@H]1c2ccccc2C[C@H]1O` [indinavir], the “CIC95 against the viral constructs Q60, K-60, and V-18” value [1] is given as “greater than 1000 nM” and the “reducing HIV viral loads and increasing CD4 cell counts” value [2] is given as “highly effective”.
